The values below come from US8507523B2, “Therapeutic tetrahydroisoquinoline-based compositions for cancer therapy” (priority 2006, dated 2013).

The subject of data set [1] is normal primary cultures of rat brain astrocytes. In words: Dose response (percent survival) in primary cultures of astrocytes. The format is cell-based. The conditions noted are these: 4 days of treatment. From the text:
(§1) 6,7-Dimethoxy-1-[4-(4-methoxypyridin-3-yl)benzyl]-1,2,3,4-tetrahydroisoquinolinehydrochloride (EDL-291) was synthesized as described herein in the laboratory of Dr. Duane D. Miller at The University of Tennessee Health Science Center. Briefly, the primary cultures of astrocytes and cultures of C6 glioma cell lines were handled identically with respect to treatment concentrations and manipulations of cells for the screening assays. The cells were trypsinized and transferred to 96-well plates at a cell density of 10^3 cells/mm^2 in the wells. The cells were grown overnight in 100 μL of 10% FCS BME in a 37° C. incubator containing a humid, 5% CO2 atmosphere.
(§2) EDL291 was dissolved completely to make a […] stock solution and diluted to produce a series of concentrations. A 20 μL aliquot of these initial solutions was added to 180 μl of 2% FCS BME to produce the test concentration. The vehicle solution was tested as a control. […] Immediately before treatment, the 10% FCS BME was removed from the cells and replaced with the 180 μl of the treatment medium. The cultured cells (normal primary cultures of rat brain astrocytes or C6 glioma purchased from ATCC) were incubated with test compound for 4 days. The cells were fixed with 4% paraformaldehyde, stained with 0.1% Cresylecth violet stain, and quantitated. The screening data was collected as four wells for each dose per compound (screening) or concentration (dose response curve). Also, the average growth of 8 wells with no treatment was used as a negative control for each plate (100% growth). The cells for dose response curves were grown in the same media and were handled in a similar manner as in the screening assays.
(§3) The cytotoxic character of each compound was reported as the percent survival, calculated as the average A560 for treated cells divided by A560 of untreated (100% control) cells, and expressed as a percentage. Values less than 100% indicate a cytostatic or cytotoxic effect. Dose response curves and EC50 values were attained via plots of percent survival vs. concentration.

For data set [2], the system named is C6 glioma. In words: Dose response (percent survival) in C6 glioma cell cultures. The class given is cell-based, rat. Conditions: for EC50: C6 glioma cells, 4 days of treatment, percent survival.
From the text: as §1, §2, §3

Data set [3] relates to C6 glioma. In words: C6 glioma transplanted into rat brain, tumor size determination. The class given is in vivo, Sprague-Dawley rats. As to the method: For studies in which C6 glioma are transplanted into the brain, a C6 cell line produced in the inventors' laboratory that caries the β-galactosidase marker was used. The cell line was transfected with the pCMVβ expression vector (Clontech, Palo Alto, Calif.) and stable transfectants were selected using G418 (GibcoBRL). The glioma cells were plated at a density of 5×10^3 cells/cm^2 into T-75 culture flasks. The cells were allowed to grow to confluence in BME with 10% fetal calf serum. On the day before transplantation, the cultures were rinsed with Hank's Balanced Salt Solution placed in BME with 10% rat serum (Equitech-Bio Inc., Kerrville, Tex.).
A total of 18 male Sprague-Dawley rats (250-350 g) were deeply anesthetized with (13 mg/kg, Rompom and 87 mg/kg, Ketalar) for the surgery. The rats were monitored during the surgery to insure that they remained deeply anesthetized and unresponsive to pain. […]
The tumor was allowed to grow for three days prior to treatment. […] During the treatment period the animal were monitored daily. […]
The size of tumors in each animal was measured. […] The digital images were analyzed to define the volume of the tumor using the program NIH image. […] The codes were released and the data compiled and analyzed using a Student t test. […]

Data set [4] can be described thus: Acute toxicity observation in treated glioma-bearing rats. The format is in vivo, Sprague-Dawley rats. Conditions: 40 mg/kg. As to the method: The tumor was allowed to grow for three days prior to treatment. EDL-291 (40 mg/kg) was delivered by IP delivery twice a day for the next seven days. Animals were placed into one of two treatment groups: 9 rats received carrier solution only (Hanks Balanced Salt Solution, HBSS plus 10% DMSO) and 9 rats received EDL-291. During the treatment period the animal were monitored daily. After a treating the animals for 7 days, the rats were deeply anesthetized with 26 mg/kg Rompium and 174 mg/kg Ketalar and perfused through the heart with saline followed by 4% paraformaldehyde in phosphate buffer (pH 7.4). Brains were removed from the skull, post-fixed for 24 hours and then placed in a 30% sucrose solution. The brains were sectioned at […] with a freezing microtome. One 1-in-5 series of sections was mounted on glass slides and stained by the Nissl method.
Approximately three days after tumor cell implantation, animals began receiving intraperitoneal administration of EDL-291 (40 mg/kg) twice daily for the next seven days. Animals were placed into one of two treatment groups: 9 rats received vehicle only (10% DMSO in Hanks Balanced Salt Solution, HBSS) and 9 rats received EDL-291. Animals were monitored daily during the treatment period. […]

Setting [5] is: Rattus norvegicus, Astrocyte, 96 h.
[6] abbreviates: Rattus norvegicus, C6 glioma, 96 h.

Counter-ions that a name gives are not always drawn. Like-named read-outs stand apart in the source and are kept apart here.

For `COc1cc2c(cc1OC)C(Cc1ccc(-c3cnccc3OC)cc1)NCC2.Cl` (stereo not shown) [EDL-291, 6,7-Dimethoxy-1-[4-(4-methoxypyridin-3-yl)benzyl]-1,2,3,4-tetrahydroisoquinolinehydrochloride], the values for the EC50 in data set [1] (read-out: EC50 μM Astrocyte), in data set [1] (setting [5]) and in data set [2] (setting [6]) were 26 µM, 22.8 µM and 0.6 µM, respectively. The “fold difference in effect concentration, C6 glioma relative to normal brain astrocytes” value in data set [2] (EC50 astrocytes vs EC50 C6 glioma) came to 36 fold. Also, the “tumors smaller on average than in control rats” value in data set [3] (40 mg/Kg BID IP for 7 days, n=9, p=0.02 (student t test)) stood at 32%. Further, in data set [3] (40 mg/kg IP twice daily for 7 days), the “tumor size compared to vehicle control animals (in words)” value was “statistically significant reduction in tumor size”. Besides, the acute toxicity result in data set [4] is reported as “no evidence of acute toxicity”.
As to `COc1cc2c(cc1OC)C(Cc1ccc(-c3ccncc3)cc1)N(C(=O)OC(C)(C)C)CC2` (stereo not shown) [Compound 3, 6,7-Dimethoxy-1-(4-pyridin-4-yl-benzyl)-3,4-dihydro-1H-isoquinoline-2-carboxylic acid tert-butyl ester], the figures for the EC50 in data set [1] (setting [5]) and in data set [2] (setting [6]) were 18.4 µM and 5.92 µM, respectively.
On to `COc1cc2c(cc1OC)C(Cc1ccc(-c3cccnc3OC)cc1)N(C)CC2` (stereo not shown) [Compound 9, 6,7-Dimethoxy-1-[4-(2-methoxypyridin-3-yl)benzyl]-2-methyl-1,2,3,4-tetrahydroisoquinolinehydrochloride], for which the figures for the EC50 in data set [1] (read-out: EC50 μM Astrocyte) and in data set [2] (listed as drawing 27) were 25.3 µM and 5.5 µM, respectively.
On to `COc1cc2c(cc1OC)C(Cc1ccc(-c3cccnc3OC)cc1)N(C)CC2` (stereo not shown) [Compound 8, 6,7-dimethoxy-1-[4-(2-methoxypyridin-3-yl)benzyl]-2-methyl-1,2,3,4-tetrahydro-isoquinoline], for which the results for the EC50 in data set [1] (setting [5]) and in data set [2] (listed as drawing 26) were 27.3 µM and 2.2 µM, respectively.
Turning to `COc1cc2c(cc1OC)C(Cc1ccc(-c3cccnc3Cl)cc1)N(C(=O)OC(C)(C)C)CC2` (stereo not shown) [Compound 31, 1-[4-(2-Chloro-pyridin-3-yl)benzyl]-6,7-dimethoxy-3,4-dihydro-1H-isoquinoline-2-carboxylic acid tert-butyl ester], the “EC50 μM Astrocyte” value in data set [1] is given as “No Effect”. Also, the concentration giving a half-maximal response (EC50) in data set [2] (setting [6]) amounted to 3.5 µM.
For `COc1cc2c(cc1OC)C(Cc1ccc(-c3cnccc3OC)cc1)N(C)CC2` (stereo not shown) [Compound 23, 6,7-Dimethoxy-1-[4-(4-methoxypyridin-3-yl)benzyl]-2-methyl-1,2,3,4-tetrahydroisoquinoline hydrochloride], the concentration for a half-maximal effect (EC50) in data set [1] (setting [5]) amounted to 28.2 µM; in data set [2] (setting [6]) it was 3.3 µM.
With `COc1cc2c(cc1OC)C(Cc1ccc(-c3cncnc3)cc1)N(C(=O)OC(C)(C)C)CC2` (stereo not shown) [Compound 28, 6,7-Dimethoxy-1-(4-pyrimidin-5-ylbenzyl)-3,4-dihydro-1H-isoquinoline-2-carboxylic acid tert-butyl ester], the “EC50 μM Astrocyte” value in data set [1] was “No Effect”. Also, a half-maximal effect in data set [2] (setting [6]) (EC50) was put at 15.2 µM.
As for `COc1cc2c(cc1OC)C(Cc1ccc(-c3ccccc3NS(C)(=O)=O)cc1)N(C(=O)OC(C)(C)C)CC2` (stereo not shown) [Compound 14, 1-(2′-Methanesulfonylaminobiphenyl-4-ylmethyl)-6,7-dimethoxy-3,4-dihydro-1H-isoquinoline-2-carboxylic acid tert-butyl ester], the “EC50 μM Astrocyte” value in data set [1] is reported as “No Effect”. It took 6.2 µM to reach a half-maximal effect in data set [2] (setting [6]) (EC50).
As to `COc1ncc(-c2ccc(CC3c4cc(OC)c(OC)cc4CCN3C(=O)OC(C)(C)C)cc2)c(OC)n1` (stereo not shown) [Compound 25, 1-[4-(2,4-Dimethoxypyrimidin-5-yl)benzyl]-6,7-dimethoxy-3,4-dihydro-1H-isoquinoline-2-carboxylic acid tert-butyl ester], the “EC50 μM Astrocyte” value in data set [1] is recorded as “No Effect”. The molecule further showed an EC50 in data set [2] (setting [6]) of 6.8 µM.
On to `COc1cc2c(cc1OC)C(Cc1ccc(-c3ccncc3OC)cc1)N(C(=O)OC(C)(C)C)CC2` (stereo not shown) [Compound 11, 6,7-Dimethoxy-1-[4-(3-methoxypyridin-4-yl)benzyl]-3,4-dihydro-1H-isoquinoline-2-carboxylic acid tert-butyl ester], for which the EC50 in data set [1] (setting [5]) stood at 13.6 µM; in data set [2] (setting [6]), 4.4 µM.
For `CC(C)(C)OC(=O)N1CCc2cc3c(cc2C1Cc1ccc(-c2cnccc2Cl)cc1)OCO3` (stereo not shown) [Compound 40, 5-[4-(4-Chloropyridin-3-yl)benzyl]-7,8-dihydro-5H-[1,3]dioxolo[4,5-g]isoquinoline-6-carboxylic acid tert-butyl ester], the values for the EC50 in data set [1] (setting [5]) and in data set [2] (setting [6]) were 37.5 µM and 6.3 µM, respectively.
As for `COc1cc2c(cc1OC)C(Cc1ccc(-c3ccccc3NC(C)=O)cc1)NCC2.Cl` (stereo not shown) [Compound 18, N-[4′-(6,7-Dimethoxy-1,2,3,4-tetrahydroisoquinolin-1-ylmethyl)biphenyl-2-yl]acetamide hydrochloride salt], in data set [1], the “EC50 μM Astrocyte” value was “No Effect”. The molecule further displayed an EC50 in data set [2] (setting [6]) of 22.4 µM.
For `COc1cc2c(cc1OC)C(Cc1ccc(-c3cccnc3OC)cc1)NCC2` (stereo not shown) [Compound 7, 6,7-Dimethoxy-1-[4-(2-methoxypyridin-3-yl)benzyl]-1,2,3,4-tetrahydroisoquinoline hydrochloride salt], the EC50 was 50 to 100 µM in data set [1] (setting [5]) and 1.75 µM in data set [2] (setting [6]).

In general, EC50 refers to the concentration at which the effect is half-maximal.
